Molecular target: T1, DYRK1A (Homo sapiens, UniProt Q13627)
T1 construct: purchased Thermo Fisher Scientific (Life Technologies) SelectScreen
Test: SelectScreen Z'LYTE
Format: biochemical
In short: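 SelectScreen broad panel; activity (Z'LYTE, Adapta) plus binding formats. ATP: Km app for CSF1R Z'LYTE; 10 for CAMK1 Adapta. Readout = % per kinase.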

For `CN(C(=O)CN1CCOCC1)c1ccc2sc3c(-c4cccc5c(=O)cc(N6CC7CCC(C6)O7)oc45)cccc3c2c1` [NU5455], the inhibition at 1 µM was 6.4%.
